Legend:
[1] = test system: HDAC4, BDNF and GluN2B expression in primary cultured cortical neurons; experiment: Expression of HDAC4, BDNF and GluN2B in primary cultured cortical neurons; type: cell-based, mouse
Procedure: Meanwhile, primary cortical neuron cells were isolated from cerebral cortices of 18-day-old mouse fetuses, incubated in prep media (composition (mM). NaCl 107.5. NaH2PO4 1, NaHCO333.5, glucose 11, HEPS 1%, penicillin-streptomycin 1%) containing 0.25% trypsin and DNase1 for 30 minutes, dissociated into single cells, and seeded. Primary cortical neuron cells were grown in Neurobasal medium supplemented with 1% (v/v) B27, 1% penicillin (100 U/mL), streptomycin ([…]), and 1% Glutamax. Cells were maintained in a humidified atmosphere of 95% air and 5% CO2 at 37° C. Drug efficacy was evaluated after culturing primary cortical neuron cells for 14 days.
(§1) The amount of GluN2B reacted with the compound of the present disclosure was measured using Western blot. The fetal cerebral cortex was extracted from mice at 17 days of gestation, dissociated into single cells, cultured for 13 days, and treated with BnH drugs for 24 hours. The drug-treated cells were subjected to protein lysate preparation using RIPA protein lysis buffer containing protease and phosphatase inhibitors. The protein concentration was determined using a BCA protein assay kit (Pierce Biotechnology) using bovine serum albumin as a standard. Equal amounts of protein (20 μg per lane) were separated by electrophoresis on SDS-polyacrylamide gels at 90 V for 2 hours, then transferred from the SDS-polyacrylamide gel to PVDF membrane at 100 V for 1 hour. Then, primary reaction with GluN2B antibody (ab65783, Abcam) was performed at 4° C. for 1 day, washed three times at 10-minutes intervals with 1×PBT, and secondary reaction was performed with anti-mouse antibody (sc-2357, Santa Cruz) for 1 hour, followed by washing three times at 10-minutes intervals with 1×PBT. Western blotting was performed as described above to confirm GluN2B protein expression. Subsequently, each blot was re-probed using anti-β-actin antibody (sc-47778, Santa Cruz). Housekeeping protein β-actin was detected as a normalization control.

[2] = test system: C57BL/6J mice barrel cortex (layer 4); experiment: Synaptic function test: TC EPSC potency and GABA/AMPA ratio in barrel cortex (layer 4); type: in vivo
Excerpt: Eight weeks old male C57BL/6J mice were anesthetized with isoflurane during surgery. The mice were then be placed in a stereotaxic frame (RWD Life Science, China). The parietal and the frontal bones were exposed by a sagittal incision of the scalp at the midline from the level of the eyes to the occipital protuberance. A small burr hole was drilled after exposing the skull. The injection cannula was placed at the following coordinates: (Mouse: Bregma −3.30, lateral −1.50, and ventral 0.7 mm). Sterile saline solution (+/−a compound of the present disclosure) was perfused at a constant flow rate of 0.5 μL/h through the injection cannula using a mini-Os pump (DURECT Corporation ALZET Osmotic Pumps, CA). Implantation was done in layer 4 of the barrel cortex ipsilateral. To estimate extent of the diffusion of the injected compound in layer 4 barrel cortex during pump injection, methylene blue was first injected to stain the diffusion area. On average methylene blue diffused to […] away from the injection site (the total area of the barrel cortex region is about 1500 μm). Based on this analysis, the present inventors recorded from barrel cortex area.
2 mg of BnH12001 was dissolved in 800 ul of DMSO and prepared as a stock solution. For oral administration, BnH12001 DMSO stock:PEG400:Saline was mixed in a ratio of 5:55:40 and 200 μl/animal was administered. For the control group, a vehicle in which DMSO:PEG400:Saline was mixed in a 5:55:40 ratio was administered at 200 ul/animal. In the single drug administration test, the compound was administered once a day for about 11 to 12 days at a dose of 1 mg/kg. Dose response test was performed by administering the compound once a day for about 11 to 12 days at doses of 0.03, 0.1, 0.3, 1, 3, and 10 mg/kg. 5 mice were used for the compound administration group and the control group, respectively.
For TC or hippocampus slice preparation. 9 to 10 weeks-old male C57BL/6J mice were anesthetized with isoflurane. Then, the brain was rapidly cooled via transcardial perfusion with ice-cold sucrose-artificial cerebrospinal fluid (aCSF). The brain was removed and placed in ice-cold sucrose aCSF. Paracoronal slices were prepared at an angle of 50° relative to the midline on a ramp at an angle of 10°. Then, slices were incubated in aCSF at 35° C. for 30 minutes to recover. Slices were then incubated in aCSF at room temperature (23 to 25° C.) for 1 to 4 hours before being placed in the recording chamber for experiments. The standard aCSF contains saturated with 95% O2/5% CO2. The brain of the mouse was removed and cut into 400 μm at a 50° angle (mouse at a 55° angle) to attach the cut portion to the vibratome disc to be the bottom. Brain slice was incubated in 35° C. in aCSF solution for 30 minutes, or at RT in aCSF solution for 1 hour.
All electrophysiological experiments were conducted at 27 to 29° C. For electrophysiological experiments, electrodes with […] resistance were used and stimuli were applied to the ventral posteromedial nucleus (VPM) using a concentric bipolar electrode (FHC, Bowdoin, ME). The somatosensory cortex was identified by the presence of barrels under 4× magnification and differential interference contrast (DIC) optics, and by the ability to evoke short and constant latency field excitatory postsynaptic potentials (fEPSPs) by VPM stimulation. Whole-cell voltage-clamp recordings were made from stellate cells (SC) in layer IV of the somatosensory barrel cortex using infrared illumination and differential interference contrast (DIC) optics. The composition of whole cell recording solution is shown as follows:
Whole cell recordings were made using a multiclamp 700A (Molecular devices, Sunnyvale, CA) digitized at 10 kHz and filtered at 2 kHz. […]

GluN2B = experiment: Western blot of GluN2B protein in cultured fetal cortical cells; type: cell-based, mice
Procedure: as §1
The increase and decrease of BnH12 series were confirmed by setting the vehicle to 1 (N for each group was 3 or more).
Using the experimental procedure described in Example 3, it was determined whether various BnH12 series compounds increase GluN2B expression, and the results are shown in Table 6. These in vitro experimental results are expressed as relative values to the group (vehicle) that was not treated with the compound, with the effect of the group set to 1.

[3] = test system: APP/PS1 mice hippocampus (Schaffer collateral-CA1); experiment: fEPSP slope and LTP in hippocampus of Alzheimer's animal model; type: in vivo; details: 15 months old
Procedure: For intravenous injection, the tail vein injection method was used. […] In the drug injection test, the compound was administered once a day for about 11 to 13 days. 5 mice were used for the compound administration group and the control group, respectively.
For TC or hippocampus slice preparation. 9 to 10 weeks-old male C57BL/6J mice were anesthetized with isoflurane. Then, the brain was rapidly cooled via transcardial perfusion with ice-cold sucrose-artificial cerebrospinal fluid (aCSF). The brain was removed and placed in ice-cold sucrose aCSF. Paracoronal slices were prepared at an angle of 50° relative to the midline on a ramp at an angle of 10°. […]
Field recordings were made with a concentric bipolar electrode positioned in the stratum radiatum of the CA1 region using an extracellular glass pipette (3.5 MΩ) filled with aCSF. […] In all fEPSP experiments, the test stimulation were measured prior to the beginning of all the experiments (30 μA) and a test-pulse stimulation strength that evokes 50% of the maximum fEPSP was used. Baseline synaptic responses was recorded for 30 minutes, and then long-term potentiation (LTP) was induced by high-frequency stimulation (HFS; 100 Hz, 4 trains, 1 s duration, 20 s inter-train interval). […]
Excitatory postsynaptic potential (EPSP) was recorded by the whole-cell patch clamp method using a patch clamp amplifier (molecular devices, USA). […]

[4] = primary cultured cortical neurons
[5] = Os pump, injected into layer 4 of barrel cortex, 3 μM, 2 weeks, 8-week-old C57BL/6J mice
[6] = oral, 1 mg/kg, 8-week-old C57BL/6J mice
[7] = 1 μM, 24-hour treatment, cultured primary cortical neurons (DIV 14)

SMILES | BDNF expression [1, 4] | GluN2B expression [1, 4] | HDAC4 protein expression [1, 4] | Balance of excitation/inhibition (GABA/AMPA ratio) [2, 5] | Excitatory TC synaptic potency (TC potency) [2, 5] | Balance of excitation/inhibition (GABA/AMPA ratio) [2, 6] | TC synaptic potency in the sensory cortex [2, 6] | TC EPSC potency in the layer 4 barrel cortex ([2]; orally-applied, 3 μM) | Effect on GluN2B expression compared to the vehicle (GluN2B; comment on Table 6) | GluN2B expression, Western blot results, Mean (GluN2B; relative value, vehicle set to 1, treated for 24 hours, N 3 or more) | BDNF expression [1, 7] | GluN2B expression [1, 7] | Efficacy on TC synaptic potency compared among racemate and enantiomers [2, 6] | Slope of fEPSP in CA1 region of Schaffer collateral circuit (synaptic efficacy) [3] | Synaptic long-term potentiation (LTP) of the excitatory SC pathway [3]
CC1CCC(C(=O)O)CN1C(=O)Cc1ccc(F)cc1Cl (racemic) [BnH12001, 1-(2-(2-chloro-4-fluorophenyl)acetyl)-6-methylpiperidine-3-carboxylic acid] | significantly increased | significantly increased | significantly suppressed | maintained | significantly increased | maintaining the balance of excitation/inhibition | increase the TC synaptic potency | significantly augmented |  |  |  |  |  |  | 
C[C@@H]1CC[C@H](C(=O)O)CN1C(=O)Cc1ccc(F)cc1Cl [BnH12001 enantiomer (3S,6R, 98%<), (3S,6R)-1-(2-(2-chloro-4-fluorophenyl)acetyl)-6-methylpiperidine-3-carboxylic acid] |  |  |  |  |  | maintaining the balance of excitation/inhibition | increase the TC synaptic potency |  | excellent effects | 1.548 | increased | increased | highest efficacy | increased synaptic efficacy | significantly increased

Reference: US20250188032A1, “NITROGEN-CONTAINING HETEROCYCLIC COMPOUNDS AND USES THEREOF” (BNH RESEARCH CO., LTD., priority 2022, published 2025)
